Test system: A375-NRAS^Q61K cells
Experiment: CTGlo Cell Viability Assay, A375-NRAS^Q61K (A375.11) cells, 96 hours
Assay type: cell-based, human
Details: A375.11 (A375-NRAS^Q61K) cells; for Emax / CTGlo A375.11 96 hours Emax: lowest % viability achieved
In short: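 A375 cells carrying BRAF V600E and NRAS Q61K were seeded at 250 cells/well with a 10-point half-log dose series (max 10 μM final). After 96 h at 37 °C, viability was read as ATP luminescence (CellTiter-Glo), background-subtracted and normalized to DMSO (100%). GI50 from 4-parameter fit; Emax is the lowest % viability.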

CCN(C)S(=O)(=O)Nc1ccc(F)c(Oc2ccc3ncn([C@H]4COC5(CCN(C6CCC(c7cc8c(cc7F)c(N7CCC(=O)NC7=O)nn8C)CC6O)CC5)C4)c(=O)c3c2)c1C#N (single isomer, unassigned) [Compound 43]
GI50 (Homo sapiens, 96 h): < 1000 nM
Emax (Homo sapiens, 96 h): 50 to 90%

CCN(C)S(=O)(=O)Nc1ccc(F)c(Oc2ccc3ncn([C@@H]4COC5(CCN(C6CCC(c7cc8c(cc7F)c(N7CCC(=O)NC7=O)nn8C)CC6)CC5)C4)c(=O)c3c2F)c1C#N (single isomer, unassigned) [Compound 46]
GI50 (Homo sapiens, 96 h): < 1000 nM
Emax (Homo sapiens, 96 h): < 50%

CCN(C)S(=O)(=O)Nc1ccc(F)c(Oc2ccc3ncc([C@H]4COC5(CCN(C6CCC(c7cc8c(cc7F)c(N7CCC(=O)NC7=O)nn8C)CC6)CC5)C4)nc3c2)c1C#N (single isomer, unassigned) [Compound 48]
GI50 (Homo sapiens, 96 h): < 1000 nM
Emax (Homo sapiens, 96 h): < 50%

CCN(C)S(=O)(=O)Nc1ccc(F)c(Oc2ccc3ncn([C@H]4COC5(CCN(C6CCC(c7ccc(NC8CCC(=O)NC8=O)cc7F)CC6)CC5)C4)c(=O)c3c2F)c1C#N (single isomer, unassigned) [Compound 50]
GI50 (Homo sapiens, 96 h): < 1000 nM
Emax (Homo sapiens, 96 h): < 50%

CCN(C)S(=O)(=O)Nc1ccc(F)c(Oc2ccc3ncn([C@@H]4COC5(CCN(C6CCC(c7ccc(NC8CCC(=O)NC8=O)cc7F)CC6)CC5)C4)c(=O)c3c2F)c1C#N (single isomer, unassigned) [Compound 52]
GI50: > 10000 nM
Emax (Homo sapiens, 96 h): 50 to 90%

CCN(C)S(=O)(=O)Nc1ccc(F)c(Oc2ccc3ncc([C@@H]4COC5(CCN(C6CCC(c7cc8c(cc7F)c(N7CCC(=O)NC7=O)nn8C)CC6)CC5)C4)nc3c2)c1C#N (single isomer, unassigned) [Compound 54]
GI50 (Homo sapiens, 96 h): < 1000 nM
Emax (Homo sapiens, 96 h): < 50%

CCN(C)S(=O)(=O)Nc1ccc(F)c(Oc2ccc3ncc([C@H]4COC5(CCN(C6CCC(c7ccc(NC8CCC(=O)NC8=O)cc7F)CC6)CC5)C4)nc3c2)c1C#N (single isomer, unassigned) [Compound 58]
GI50 (Homo sapiens, 96 h): < 1000 nM
Emax (Homo sapiens, 96 h): < 50%

CCN(C)S(=O)(=O)Nc1ccc(F)c(Oc2ccc3ncc([C@@H]4COC5(CCN(C6CCC(c7ccc(NC8CCC(=O)NC8=O)cc7F)CC6)CC5)C4)nc3c2)c1C#N (single isomer, unassigned) [Compound 60]
GI50: < 1000 nM
Emax (Homo sapiens, 96 h): < 50%

CCN(C)S(=O)(=O)Nc1ccc(F)c(Oc2ccc3ncn([C@H]4COC5(CCN(C6CC(c7ccc(NC8CCC(=O)NC8=O)cc7F)C6)CC5)C4)c(=O)c3c2)c1C#N (single isomer, unassigned) [Compound 62]
GI50 (Homo sapiens, 96 h): < 1000 nM
Emax (Homo sapiens, 96 h): < 50%

CCN(C)S(=O)(=O)Nc1ccc(F)c(Nc2ccc3ncn([C@H]4COC5(CCN(C6CCC(c7cc8c(cc7F)c(N7CCC(=O)NC7=O)nn8C)CC6)CC5)C4)c(=O)c3c2)c1C#N (single isomer, unassigned) [Compound 64]
GI50: 1000 to 10000 nM
Emax (Homo sapiens, 96 h): 50 to 90%

CCN(C)S(=O)(=O)Nc1ccc(F)c(Nc2ccc3ncn([C@H]4COC5(CCN(C6CCC(c7cc8c(cc7F)c(N7CCC(=O)NC7=O)nn8C)CC6)CC5)C4)c(=O)c3c2F)c1C#N (single isomer, unassigned) [Compound 67]
GI50 (Homo sapiens, 96 h): < 1000 nM
Emax (Homo sapiens, 96 h): < 50%

CCN(C)S(=O)(=O)Nc1ccc(F)c(Oc2ccc3ncn([C@H]4COC5(CCN(C6CC(c7cc8c(cc7F)c(N7CCC(=O)NC7=O)nn8C)C6)CC5)C4)c(=O)c3c2)c1C#N (single isomer, unassigned) [Compound 70]
GI50 (Homo sapiens, 96 h): < 1000 nM
Emax (Homo sapiens, 96 h): < 50%

CCN(C)S(=O)(=O)Nc1ccc(F)c(Oc2ccc3ncn([C@H]4COC5(CCN(C6CCC(c7cc8c(cc7F)c(N7CCC(=O)NC7=O)nn8C)CC6)CC5)C4)c(=O)c3c2)c1F (single isomer, unassigned) [Compound 71]
GI50 (Homo sapiens, 96 h): < 1000 nM
Emax (Homo sapiens, 96 h): < 50%

CN(CCO)S(=O)(=O)Nc1ccc(F)c(Oc2ccc3ncn([C@H]4COC5(CCN(C6CCC(c7cc8c(cc7F)c(N7CCC(=O)NC7=O)nn8C)CC6)CC5)C4)c(=O)c3c2)c1C#N (single isomer, unassigned) [Compound 73]
GI50 (Homo sapiens, 96 h): 1000 to 10000 nM
Emax (Homo sapiens, 96 h): < 50%

CN(CCO)S(=O)(=O)Nc1ccc(F)c(Oc2ccc3ncn([C@H]4COC5(CCN(C6CCC(c7ccc(NC8CCC(=O)NC8=O)cc7F)CC6)CC5)C4)c(=O)c3c2)c1C#N (single isomer, unassigned) [Compound 76]
GI50 (Homo sapiens, 96 h): < 1000 nM
Emax (Homo sapiens, 96 h): < 50%

CCN(C)S(=O)(=O)Nc1ccc(F)c(Oc2ccc3ncn([C@H]4COC5(CCN(C6CCC(c7ccc(NC8CCC(=O)NC8=O)cc7F)CC6)CC5)C4)c(=O)c3c2)c1F (single isomer, unassigned) [Compound 78]
GI50 (Homo sapiens, 96 h): < 1000 nM
Emax (Homo sapiens, 96 h): < 50%

CN(CCO)S(=O)(=O)Nc1ccc(F)c(Oc2ccc3ncn(C4CC5(CCN(C6CCC(c7ccc(NC8CCC(=O)NC8=O)cc7F)CC6)CC5)C4)c(=O)c3c2)c1C#N (single isomer, unassigned) [Compound 79, 6-[2-cyano-6-fluoro-3-[[2-hydroxyethyl(methyl)sulfamoyl]amino]phenoxy]-3-[7-[4-[4-[(2,6-dioxo-3-piperidyl)amino]-2-fluoro-phenyl]cyclohexyl]-7-azaspiro[3.5]nonan-2-yl]-4-oxo-quinazoline]
GI50: 1000 to 10000 nM
Emax (Homo sapiens, 96 h): 50 to 90%

CN(CCO)S(=O)(=O)Nc1ccc(F)c(Oc2ccc3ncn(C4CC5(CCN(C6CCC(c7cc8c(cc7F)c(N7CCC(=O)NC7=O)nn8C)CC6)CC5)C4)c(=O)c3c2)c1C#N (single isomer, unassigned) [Compound 81, 6-[2-cyano-6-fluoro-3-[[2-hydroxyethyl(methyl)sulfamoyl]amino]phenoxy]-3-[7-[4-[3-(2,4-dioxohexahydropyrimidin-1-yl)-5-fluoro-1-methyl-indazol-6-yl]cyclohexyl]-7-azaspiro[3.5]nonan-2-yl]-4-oxo-quinazoline]
GI50 (Homo sapiens, 96 h): 1000 to 10000 nM
Emax (Homo sapiens, 96 h): 50 to 90%

CCN(C)S(=O)(=O)Nc1ccc(F)c(Oc2ccc3ncn(C4CC5(CCN(C6CCC(c7cc8c(cc7F)c(N7CCC(=O)NC7=O)nn8C)CC6F)CC5)C4)c(=O)c3c2)c1C#N (single isomer, unassigned) [Compound 83, 6-[2-cyano-3-[[ethyl(methyl)sulfamoyl]amino]-6-fluoro-phenoxy]-3-[7-[4-[3-(2,4-dioxohexahydropyrimidin-1-yl)-5-fluoro-1-methyl-indazol-6-yl]-2-fluoro-cyclohexyl]-7-azaspiro[3.5]nonan-2-yl]-4-oxo-quinazoline]
GI50 (Homo sapiens, 96 h): < 1000 nM
Emax (Homo sapiens, 96 h): < 50%

CCN(C)S(=O)(=O)Nc1ccc(F)c(Oc2ccc3ncn(C4CC5(CCN(C6CCC(c7cc8c(cc7F)c(N7CCC(=O)NC7=O)nn8C)CC6F)CC5)C4)c(=O)c3c2)c1C#N (single isomer, unassigned) [Compound 85]
GI50: < 1000 nM
CTGlo A375.11 96 hours Emax: *** (<=50%)

CCN(C)S(=O)(=O)Nc1ccc(F)c(Oc2ccc3ncn(C4CC5(CCN(C6CCC(c7cc8c(cc7F)c(N7CCC(=O)NC7=O)nn8C)CC6F)CC5)C4)c(=O)c3c2)c1C#N (single isomer, unassigned) [Compound 86]
GI50: < 1000 nM
CTGlo A375.11 96 hours Emax: *** (<=50%)

CC(C)S(=O)(=O)Nc1ccc(F)c(Oc2ccc3ncn([C@H]4COC5(CCN(C6CCC(c7cc8c(cc7F)c(N7CCC(=O)NC7=O)nn8C)CC6)CC5)C4)c(=O)c3c2)c1C#N (single isomer, unassigned) [Compound 87]
GI50 (Homo sapiens, 96 h): < 1000 nM
Emax (Homo sapiens, 96 h): < 50%

CCN(C)S(=O)(=O)Nc1ccc(F)c(Nc2ccc3ncn([C@@H]4COC5(CCN(C6CCC(c7ccc(NC8CCC(=O)NC8=O)cc7F)CC6)CC5)C4)c(=O)c3c2F)c1C#N (single isomer, unassigned) [Compound 90]
GI50 (Homo sapiens, 96 h): < 1000 nM
Emax (Homo sapiens, 96 h): 50 to 90%

CC(C)S(=O)(=O)Nc1ccc(F)c(Oc2ccc3ncn([C@H]4COC5(CCN(C6CCC(c7ccc(NC8CCC(=O)NC8=O)cc7F)CC6)CC5)C4)c(=O)c3c2)c1C#N (single isomer, unassigned) [Compound 92]
GI50 (Homo sapiens, 96 h): < 1000 nM
Emax (Homo sapiens, 96 h): < 50%

Cn1nc(N2CCC(=O)NC2=O)c2cc(F)c(C3CCC(N4CCC5(CC4)CC(n4cnc6ccc(Oc7c(F)ccc(NS(=O)(=O)C8CCCC8)c7C#N)cc6c4=O)C5)CC3)cc21 (single isomer, unassigned) [Compound 93, N-[2-cyano-3-[3-[7-[4-[3-(2,4-dioxohexahydropyrimidin-1-yl)-5-fluoro-1-methyl-indazol-6-yl]cyclohexyl]-7-azaspiro[3.5]nonan-2-yl]-4-oxo-quinazolin-6-yl]oxy-4-fluoro-phenyl]cyclopentanesulfonamide]
GI50 (Homo sapiens, 96 h): < 1000 nM
Emax (Homo sapiens, 96 h): < 50%

CC(C)S(=O)(=O)Nc1ccc(F)c(Oc2ccc3ncn(C4CC5(CCN(C6CCC(c7cc8c(cc7F)c(N7CCC(=O)NC7=O)nn8C)CC6)CC5)C4)c(=O)c3c2)c1C#N (single isomer, unassigned) [Compound 95, N-[2-cyano-3-[3-[7-[4-[3-(2,4-dioxohexahydropyrimidin-1-yl)-5-fluoro-1-methyl-indazol-6-yl]cyclohexyl]-7-azaspiro[3.5]nonan-2-yl]-4-oxo-quinazolin-6-yl]oxy-4-fluoro-phenyl]propane-2-sulfonamide]
GI50 (Homo sapiens, 96 h): < 1000 nM
Emax (Homo sapiens, 96 h): 50 to 90%

CO[C@@H]1CCN(S(=O)(=O)Nc2ccc(F)c(Oc3ccc4ncn([C@H]5COC6(CCN(C7CCC(c8cc9c(cc8F)c(N8CCC(=O)NC8=O)nn9C)CC7)CC6)C5)c(=O)c4c3)c2C#N)C1 (single isomer, unassigned) [Compound 100]
GI50 (Homo sapiens, 96 h): < 1000 nM
Emax (Homo sapiens, 96 h): < 50%

CO[C@@H]1CCN(S(=O)(=O)Nc2ccc(F)c(Oc3ccc4ncn(C5CC6(CCN(C7CCC(c8cc9c(cc8F)c(N8CCC(=O)NC8=O)nn9C)CC7)CC6)C5)c(=O)c4c3)c2C#N)C1 (single isomer, unassigned) [Compound 101]
GI50 (Homo sapiens, 96 h): < 1000 nM
Emax (Homo sapiens, 96 h): < 50%

CO[C@H]1CCN(S(=O)(=O)Nc2ccc(F)c(Oc3ccc4ncn(C5CC6(CCN(C7CCC(c8cc9c(cc8F)c(N8CCC(=O)NC8=O)nn9C)CC7)CC6)C5)c(=O)c4c3)c2C#N)C1 (single isomer, unassigned) [Compound 103]
GI50: > 10000 nM
Emax (Homo sapiens, 96 h): 50 to 90%
